Results reported in US12053479B2, “Transdermal treatment for erectile dysfunction” (Madera Pharmaceuticals, Inc., priority 2020, dated 2024).
Read-outs that look alike come from different tables or passages of the source.

Tests used:
[1] = Drug solubility in individual excipients
[2] = In vitro permeation testing (IVPT), diffusion cell; details: cumulative amount in receptor solution versus time (FIGS. 2-4)
Source text: With reference to FIG. 1, in vitro skin permeation experiments used a diffusion cell designed to mimic the physiological and anatomical conditions of skin in situ. The diffusion cell included a donor compartment configured to receive the formulation, or solvent system, to be tested. A receptor compartment included a flow path for receptor solution, which was to be analyzed. Dermatomed skin was arranged between the donor compartment and receptor compartment. As such, a formulation comprising the solvent system having the drug is applied to the skin in the donor compartment. A portion of the drug permeated through the skin into the receptor solution, which was analyzed to determine drug concentration at several time periods, including 0.25, 0.5, 1, 1.5 2, 4, 6 and 8 hours. […]
The receptor solution was collected and analyzed as discussed. The cumulative amount per cm^2 of phentolamine, papaverine, and prostaglandin permeated into the receptor solution was calculated from drug concentrations measured in the receptor solution over time. The cumulative amount per cm^2 of phentolamine, papaverine, and prostaglandin at the final timepoint was calculated for each replicate. […] Means and standard errors were calculated and reported in figures and tables, including Tables 5 and 6 below.

[3] = in water, buffer solutions (pH 4 and 7) and glycerol

Compound | Solubility (in words) ([1]; in ethanol and transcutol P) | Solubility [1, 3] | Solubility (in words) [1, 3] | Saturated solubility (solvent system SSAG01, all three drugs combined) [% w/w] | Saturated solubility (solvent system SSAG01, drug added individually) [% w/w] | Saturated solubility (solvent system SSAG02, all three drugs combined) [% w/w] | Saturated solubility (solvent system SSAG02, drug added individually) [% w/w] | Saturated solubility (upon addition of phentolamine mesylate and prostaglandin E1, span over all solvent systems) | Amount permeated through the skin, SSAG02 with all of the drugs versus SSAG02 with the drug alone [2]
COc1ccc(Cc2nccc3cc(OC)c(OC)cc23)cc1OC.Cl [Papaverine HCl, papaverine hydrochloride] | poorly soluble | 2-3 % w/w | moderately soluble | 7.58 | 6.39 | 9.44 | 7.21 | 7.58-9.44 % w/w | much greater amount
CCCCC[C@H](O)/C=C/[C@H]1[C@H](O)CC(=O)[C@@H]1CCCCCCC(=O)O [Prostaglandin E1] | strongly soluble |  | poorly soluble |  |  |  |  |  | 
